For experiment [1], the system named is Mycobacterium tuberculosis. The experiment in a line: Antimycobacterial activity against multi drug resistant Mycobacterium tuberculosis measured after 8 to 9 days. It counts as functional. The conditions noted are these: time 8-9 day.
Experiment [2] has as its system Mycobacterium tuberculosis. The experiment in a line: Antimycobacterial activity against drug resistant Mycobacterium tuberculosis measured after 8 to 9 days. It counts as functional. The conditions noted are these: time 8-9 day.

Molecules are shown by their SMILES. Values after ≈ are worked out from the molar mass of the structure shown.

In general, MIC refers to the least concentration at which growth counts as inhibited. A high value points to a less susceptible organism.

For `Clc1ccc(-c2nnc3sc(COc4ccc(Br)cc4)nn23)cc1`, the MIC worked out at 4 µg/mL (≈ 9.49 µM) in experiment [1] and 0.5 µg/mL (≈ 1.19 µM) in experiment [2].

With `Brc1ccc(OCc2nn3c(-c4ccc(Br)cc4)nnc3s2)cc1`, the figures for the MIC in experiment [1] and in experiment [2] were 4 µg/mL (≈ 8.58 µM) and 0.5 µg/mL (≈ 1.07 µM), respectively.

Regarding `O=[N+]([O-])c1ccc(C2=Nn3c(nnc3-c3ccc(Br)cc3)CC2)cc1`, the MIC in experiment [2] stood at 0.25 µg/mL (≈ 0.628 µM).

As for `O=[N+]([O-])c1ccc(C2=Nn3c(nnc3-c3ccnc(F)c3)CC2)cc1`, the MIC in experiment [1] and in experiment [2] was 0.25 µg/mL (≈ 0.739 µM) in each case.

Regarding `O=[N+]([O-])c1ncn(CCCCNS(=O)(=O)c2scc(Cl)c2Cl)n1`, the MIC in experiment [1] stood at 0.25 µg/mL (≈ 0.625 µM).

Source of the values: ChEMBL document CHEMBL5244255, “An insight on medicinal attributes of 1,2,4-triazoles” (Eur J Med Chem, 2020).
